Experimental data as given in patent US12275731B2, “Azaindole inhibitors of wild-type and mutant forms of LRRK2” (DANA-FARBER CANCER INSTITUTE, INC., priority 2018, dated 2025).

What was measured:
Experiment in all cases: KinomeScan profiling
Type in all cases: binding
ERK8 = molecular target: T1, ERK8 (Homo sapiens, UniProt Q8TD08); details: ERK8, 1 μM; read-out: % control
T1 sequence (Q8TD08 1-544): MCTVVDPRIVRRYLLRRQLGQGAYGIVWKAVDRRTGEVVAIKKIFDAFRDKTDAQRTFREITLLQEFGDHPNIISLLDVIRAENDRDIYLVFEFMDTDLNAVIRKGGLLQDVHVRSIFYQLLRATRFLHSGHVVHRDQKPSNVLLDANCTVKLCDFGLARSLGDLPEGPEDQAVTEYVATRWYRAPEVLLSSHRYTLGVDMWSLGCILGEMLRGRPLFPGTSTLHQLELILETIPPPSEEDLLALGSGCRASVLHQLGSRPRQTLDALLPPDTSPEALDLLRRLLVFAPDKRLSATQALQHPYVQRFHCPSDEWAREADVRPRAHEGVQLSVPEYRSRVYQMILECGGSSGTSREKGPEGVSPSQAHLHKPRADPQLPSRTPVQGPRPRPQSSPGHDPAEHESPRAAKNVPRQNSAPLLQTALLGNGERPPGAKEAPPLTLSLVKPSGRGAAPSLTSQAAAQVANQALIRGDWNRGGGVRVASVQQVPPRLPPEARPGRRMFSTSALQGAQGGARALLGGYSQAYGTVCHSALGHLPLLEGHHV
Procedure, shortened: (§1)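 Normalised RLU (% control; DMSO 100%, positive control 0%) was measured for compounds dosed at 1 μM over 468 kinases, active cut-off <35%.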

JNK3 = molecular target: T2, JNK3 (Homo sapiens, UniProt P53779); details: JNK3, 1 μM; read-out: % control
T2 construct: purchased KinomeScan®
T2 sequence (P53779 whole entry): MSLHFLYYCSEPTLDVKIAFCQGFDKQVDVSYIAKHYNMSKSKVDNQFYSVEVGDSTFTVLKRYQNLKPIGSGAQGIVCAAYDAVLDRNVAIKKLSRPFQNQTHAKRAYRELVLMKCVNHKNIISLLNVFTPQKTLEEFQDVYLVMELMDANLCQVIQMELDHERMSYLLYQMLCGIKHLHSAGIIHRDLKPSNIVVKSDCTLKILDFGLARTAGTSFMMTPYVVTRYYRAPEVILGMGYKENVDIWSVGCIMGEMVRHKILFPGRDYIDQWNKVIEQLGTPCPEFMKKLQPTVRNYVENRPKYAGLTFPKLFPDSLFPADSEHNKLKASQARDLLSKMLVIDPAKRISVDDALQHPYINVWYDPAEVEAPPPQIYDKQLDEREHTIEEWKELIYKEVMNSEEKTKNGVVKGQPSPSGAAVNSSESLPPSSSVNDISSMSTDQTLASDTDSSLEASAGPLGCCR
Procedure, shortened: as §1

MRCKA = MRCKA (Homo sapiens, UniProt Q5VT25); details: read-out: % control
MRCKA, sequence (Q5VT25 whole entry): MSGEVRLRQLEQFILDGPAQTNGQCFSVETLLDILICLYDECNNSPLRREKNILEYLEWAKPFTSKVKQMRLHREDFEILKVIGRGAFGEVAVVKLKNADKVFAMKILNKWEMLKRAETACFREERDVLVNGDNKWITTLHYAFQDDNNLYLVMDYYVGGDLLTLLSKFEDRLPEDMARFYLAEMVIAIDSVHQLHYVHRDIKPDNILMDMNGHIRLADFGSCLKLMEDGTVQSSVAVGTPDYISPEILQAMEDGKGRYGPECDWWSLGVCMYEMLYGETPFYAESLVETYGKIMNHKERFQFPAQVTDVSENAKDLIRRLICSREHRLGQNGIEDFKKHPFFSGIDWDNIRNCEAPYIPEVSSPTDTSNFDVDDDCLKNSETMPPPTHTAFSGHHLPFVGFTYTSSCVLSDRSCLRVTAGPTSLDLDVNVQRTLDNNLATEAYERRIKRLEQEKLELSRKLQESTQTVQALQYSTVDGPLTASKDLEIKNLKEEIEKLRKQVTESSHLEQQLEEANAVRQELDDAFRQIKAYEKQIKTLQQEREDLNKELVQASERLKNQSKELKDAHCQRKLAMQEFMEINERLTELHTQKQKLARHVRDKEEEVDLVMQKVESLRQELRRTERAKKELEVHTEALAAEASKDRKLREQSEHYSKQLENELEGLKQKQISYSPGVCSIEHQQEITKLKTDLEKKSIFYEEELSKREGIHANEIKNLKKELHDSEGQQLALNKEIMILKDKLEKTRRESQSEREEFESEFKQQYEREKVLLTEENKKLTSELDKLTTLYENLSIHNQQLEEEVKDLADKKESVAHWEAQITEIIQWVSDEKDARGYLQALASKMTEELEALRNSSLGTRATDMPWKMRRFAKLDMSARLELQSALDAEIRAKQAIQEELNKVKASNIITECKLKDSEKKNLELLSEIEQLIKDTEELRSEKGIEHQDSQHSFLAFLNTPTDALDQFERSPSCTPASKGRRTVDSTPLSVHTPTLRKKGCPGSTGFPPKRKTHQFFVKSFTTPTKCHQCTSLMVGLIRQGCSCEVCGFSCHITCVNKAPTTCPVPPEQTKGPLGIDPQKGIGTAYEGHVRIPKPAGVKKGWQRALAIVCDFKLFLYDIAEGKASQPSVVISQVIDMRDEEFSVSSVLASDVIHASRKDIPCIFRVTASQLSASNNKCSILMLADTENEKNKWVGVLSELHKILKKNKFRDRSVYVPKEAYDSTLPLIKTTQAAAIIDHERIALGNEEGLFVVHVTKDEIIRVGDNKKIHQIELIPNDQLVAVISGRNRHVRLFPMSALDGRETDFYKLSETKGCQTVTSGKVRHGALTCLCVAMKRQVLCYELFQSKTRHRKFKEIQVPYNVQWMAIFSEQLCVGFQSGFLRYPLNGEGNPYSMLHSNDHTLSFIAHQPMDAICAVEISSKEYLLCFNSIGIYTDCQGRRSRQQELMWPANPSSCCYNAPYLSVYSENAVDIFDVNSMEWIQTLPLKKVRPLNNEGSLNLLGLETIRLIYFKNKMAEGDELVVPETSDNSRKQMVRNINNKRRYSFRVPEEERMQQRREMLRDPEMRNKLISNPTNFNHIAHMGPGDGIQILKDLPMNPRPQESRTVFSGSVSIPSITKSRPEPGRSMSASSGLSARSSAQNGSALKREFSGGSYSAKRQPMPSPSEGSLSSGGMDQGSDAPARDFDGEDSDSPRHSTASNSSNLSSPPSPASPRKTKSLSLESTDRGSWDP
Procedure, shortened: as §1

RIPK2 = RIPK2 (Homo sapiens, UniProt O43353); details: RIPK2, 1 μM; read-out: % control
RIPK2, sequence (O43353 whole entry): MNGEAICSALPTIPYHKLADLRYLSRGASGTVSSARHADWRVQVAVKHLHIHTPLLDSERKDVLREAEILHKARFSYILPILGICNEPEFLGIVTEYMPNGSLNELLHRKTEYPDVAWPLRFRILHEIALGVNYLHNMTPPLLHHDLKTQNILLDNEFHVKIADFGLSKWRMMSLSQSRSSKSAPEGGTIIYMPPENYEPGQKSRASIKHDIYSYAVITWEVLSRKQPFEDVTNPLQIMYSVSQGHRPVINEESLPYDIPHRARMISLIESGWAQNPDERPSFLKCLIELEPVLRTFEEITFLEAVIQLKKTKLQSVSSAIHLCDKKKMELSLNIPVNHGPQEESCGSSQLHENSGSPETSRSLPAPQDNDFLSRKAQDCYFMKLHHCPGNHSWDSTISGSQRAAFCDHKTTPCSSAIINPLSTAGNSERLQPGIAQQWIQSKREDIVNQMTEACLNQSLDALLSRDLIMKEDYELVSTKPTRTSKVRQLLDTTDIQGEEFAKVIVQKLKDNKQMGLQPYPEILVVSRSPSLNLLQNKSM
Procedure, shortened: as §1

PFTK1 = PFTK1 (Homo sapiens, UniProt O94921); details: PFTK1, 1 μM; read-out: % control
PFTK1, sequence (O94921 whole entry): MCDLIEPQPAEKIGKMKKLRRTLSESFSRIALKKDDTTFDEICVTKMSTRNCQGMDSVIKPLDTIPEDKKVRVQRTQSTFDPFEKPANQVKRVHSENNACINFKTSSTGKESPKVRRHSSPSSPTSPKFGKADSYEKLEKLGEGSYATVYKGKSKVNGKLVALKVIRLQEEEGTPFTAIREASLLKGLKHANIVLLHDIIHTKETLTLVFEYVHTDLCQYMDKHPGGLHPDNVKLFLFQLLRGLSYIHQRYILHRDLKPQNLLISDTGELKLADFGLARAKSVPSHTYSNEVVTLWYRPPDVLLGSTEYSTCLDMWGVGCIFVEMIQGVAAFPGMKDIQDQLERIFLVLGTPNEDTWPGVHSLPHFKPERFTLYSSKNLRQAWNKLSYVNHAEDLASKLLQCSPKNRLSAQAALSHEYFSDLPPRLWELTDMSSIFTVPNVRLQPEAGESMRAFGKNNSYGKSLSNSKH
Procedure, shortened: as §1

[1] = molecular target: T3, RPS6KA4(Kin.Dom.1-N-terminal) (Homo sapiens, UniProt O75676); details: read-out: % control
T3 construct: RPS6KA4(Kin.Dom.1-N-terminal)
T3 sequence (O75676 33-301 limits assumed): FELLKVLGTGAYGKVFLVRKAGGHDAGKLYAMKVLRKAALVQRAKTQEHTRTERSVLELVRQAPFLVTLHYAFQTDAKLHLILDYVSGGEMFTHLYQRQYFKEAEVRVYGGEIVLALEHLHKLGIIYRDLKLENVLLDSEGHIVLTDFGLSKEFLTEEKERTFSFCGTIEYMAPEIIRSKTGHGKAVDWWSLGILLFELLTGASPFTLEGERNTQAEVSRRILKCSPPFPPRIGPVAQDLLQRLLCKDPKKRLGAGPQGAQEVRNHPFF
Procedure, shortened: as §1

MERTK = molecular target: T4, MERTK (Homo sapiens, UniProt Q12866); details: read-out: % control
T4 sequence (Q12866 21-999): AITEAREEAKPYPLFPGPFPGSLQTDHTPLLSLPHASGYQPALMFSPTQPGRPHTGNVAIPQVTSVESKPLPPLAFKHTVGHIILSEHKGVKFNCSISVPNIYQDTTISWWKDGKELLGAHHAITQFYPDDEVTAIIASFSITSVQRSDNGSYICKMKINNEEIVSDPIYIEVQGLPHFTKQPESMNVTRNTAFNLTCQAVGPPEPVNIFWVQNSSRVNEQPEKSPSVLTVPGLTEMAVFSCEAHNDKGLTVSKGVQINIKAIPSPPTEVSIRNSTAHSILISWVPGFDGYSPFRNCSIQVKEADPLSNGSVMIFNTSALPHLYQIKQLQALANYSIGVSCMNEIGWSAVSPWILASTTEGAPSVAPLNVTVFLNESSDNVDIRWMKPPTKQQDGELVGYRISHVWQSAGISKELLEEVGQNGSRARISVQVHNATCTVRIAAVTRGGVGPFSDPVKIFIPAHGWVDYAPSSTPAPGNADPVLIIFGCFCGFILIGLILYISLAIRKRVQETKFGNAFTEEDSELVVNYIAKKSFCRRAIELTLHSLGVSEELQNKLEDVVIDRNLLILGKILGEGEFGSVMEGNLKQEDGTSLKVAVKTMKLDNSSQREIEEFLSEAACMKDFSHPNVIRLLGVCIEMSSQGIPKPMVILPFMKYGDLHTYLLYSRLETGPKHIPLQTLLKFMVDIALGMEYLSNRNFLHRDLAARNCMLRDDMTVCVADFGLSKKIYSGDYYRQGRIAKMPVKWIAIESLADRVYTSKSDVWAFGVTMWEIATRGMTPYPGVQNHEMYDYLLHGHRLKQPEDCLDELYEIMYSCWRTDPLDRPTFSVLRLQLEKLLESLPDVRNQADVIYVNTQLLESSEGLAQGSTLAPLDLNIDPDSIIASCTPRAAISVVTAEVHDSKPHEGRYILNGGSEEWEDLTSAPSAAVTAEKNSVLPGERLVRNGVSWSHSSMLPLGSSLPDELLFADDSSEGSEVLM
Procedure, shortened: as §1

FGFR2 = FGFR2 (Homo sapiens, UniProt P21802); details: FGFR2, 1 μM; read-out: % control
FGFR2, sequence (P21802 22-821): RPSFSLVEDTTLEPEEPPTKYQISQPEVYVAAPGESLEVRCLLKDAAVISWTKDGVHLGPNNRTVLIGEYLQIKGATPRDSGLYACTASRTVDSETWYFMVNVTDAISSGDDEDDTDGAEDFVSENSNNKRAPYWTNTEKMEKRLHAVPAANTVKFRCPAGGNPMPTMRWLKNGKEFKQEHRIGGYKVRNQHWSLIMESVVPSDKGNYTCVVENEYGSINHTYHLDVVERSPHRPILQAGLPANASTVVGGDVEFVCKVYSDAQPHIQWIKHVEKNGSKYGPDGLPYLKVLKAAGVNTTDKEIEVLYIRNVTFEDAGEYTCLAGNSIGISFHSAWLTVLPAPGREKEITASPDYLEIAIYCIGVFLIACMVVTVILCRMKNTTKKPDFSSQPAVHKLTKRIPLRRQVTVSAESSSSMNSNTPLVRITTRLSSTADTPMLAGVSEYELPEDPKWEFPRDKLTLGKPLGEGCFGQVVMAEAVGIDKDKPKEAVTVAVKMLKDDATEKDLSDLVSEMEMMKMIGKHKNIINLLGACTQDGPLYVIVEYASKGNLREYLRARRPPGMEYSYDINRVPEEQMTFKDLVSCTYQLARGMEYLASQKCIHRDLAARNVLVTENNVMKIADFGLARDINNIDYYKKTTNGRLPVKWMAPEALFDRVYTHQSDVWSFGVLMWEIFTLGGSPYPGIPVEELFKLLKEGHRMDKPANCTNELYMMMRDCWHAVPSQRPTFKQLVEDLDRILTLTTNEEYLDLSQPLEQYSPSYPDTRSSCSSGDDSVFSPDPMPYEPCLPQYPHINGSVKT
Procedure, shortened: as §1

| Compound | remaining binding at 1 µM (ERK8) | remaining binding at 1 µM (JNK3) | remaining binding at 1 µM (MRCKA) | remaining binding at 1 µM (RIPK2) | remaining binding at 1 µM (PFTK1) | remaining binding at 1 µM [1] | remaining binding at 1 µM (MERTK) | remaining binding at 1 µM (FGFR2) |
| --- | --- | --- | --- | --- | --- | --- | --- | --- |
| CNc1c(-c2cnn([C@H]3CCN(C(C)=O)C[C@@H]3F)c2)cnc2[nH]cc(Cl)c12 [Compound 77, 1-((3S,4S)-4-(4-(3-chloro-4-(methylamino)-1H-pyrrolo[2,3-b]pyridin-5-yl)-1H-pyrazol-1-yl)-3-fluoropiperidin-1-yl)ethan-1-one] | 92% | 1.9% | 100% | 100% | 100% | 97% | 45% | 72% |
| O=C(c1ccc(-c2cnc3[nH]cc(Cl)c3c2NC2CCCC2)cc1)N1CCC(N2CCOCC2)CC1 [Compound 101, (4-(3-chloro-4-(cyclopentylamino)-1H-pyrrolo[2,3-b]pyridin-5-yl)phenyl)(4-morpholinopiperidin-1-yl)methanone] | 91% | 7.6% | 100% | 100% | 100% | 84% | 41% | 54% |
| CNc1c(-c2ccc(C(=O)N3CCC(N4CCOCC4)CC3)cc2)cnc2[nH]cc(Cl)c12 [Compound 96, (4-(3-chloro-4-(methylamino)-1H-pyrrolo[2,3-b]pyridin-5-yl)phenyl)(4-morpholinopiperidin-1-yl)methanone] | 100% | 0.35% | 100% | 99% | 100% | 100% | 42% | 94% |
